The values below are quoted from earlier work in US20110014269A1, “CIVAMIDE PATCH FOR LOCALIZED POST-INCISIONAL NEUROPATHIC PAIN” (WINSTON LABORATORIES, INC., priority 2009, published 2011).

For the data set the following is noted: treatment of painful, inflammatory or allergic disorders.

On to `COc1cc(CNC(=O)CCCC/C=C\C(C)C)ccc1O` [Civamide, cis-8-methyl-N-vanillyl-6-nonenamide], for which the “burning and stinging relative to capsaicin's use” value is reported as “significantly less”.
